Assay [1] relates to MD-901. Description: Cell proliferation assay (MTS). Format: cell-based. The settings on record: Homo sapiens; ABC-DLBCL, 48 h.
For assay [2], the system named is SU-DHL-7. Description: Cell proliferation assay (MTS). The note with it: Homo sapiens; GC-DLBCL, 48 h. Format: cell-based.
Assay [3] has as its target T1, GLP (Homo sapiens, UniProt Q9H9B1).
T1 construct: purchased BPS Bioscience (contract panel)
T1 sequence (Q9H9B1 1-1298): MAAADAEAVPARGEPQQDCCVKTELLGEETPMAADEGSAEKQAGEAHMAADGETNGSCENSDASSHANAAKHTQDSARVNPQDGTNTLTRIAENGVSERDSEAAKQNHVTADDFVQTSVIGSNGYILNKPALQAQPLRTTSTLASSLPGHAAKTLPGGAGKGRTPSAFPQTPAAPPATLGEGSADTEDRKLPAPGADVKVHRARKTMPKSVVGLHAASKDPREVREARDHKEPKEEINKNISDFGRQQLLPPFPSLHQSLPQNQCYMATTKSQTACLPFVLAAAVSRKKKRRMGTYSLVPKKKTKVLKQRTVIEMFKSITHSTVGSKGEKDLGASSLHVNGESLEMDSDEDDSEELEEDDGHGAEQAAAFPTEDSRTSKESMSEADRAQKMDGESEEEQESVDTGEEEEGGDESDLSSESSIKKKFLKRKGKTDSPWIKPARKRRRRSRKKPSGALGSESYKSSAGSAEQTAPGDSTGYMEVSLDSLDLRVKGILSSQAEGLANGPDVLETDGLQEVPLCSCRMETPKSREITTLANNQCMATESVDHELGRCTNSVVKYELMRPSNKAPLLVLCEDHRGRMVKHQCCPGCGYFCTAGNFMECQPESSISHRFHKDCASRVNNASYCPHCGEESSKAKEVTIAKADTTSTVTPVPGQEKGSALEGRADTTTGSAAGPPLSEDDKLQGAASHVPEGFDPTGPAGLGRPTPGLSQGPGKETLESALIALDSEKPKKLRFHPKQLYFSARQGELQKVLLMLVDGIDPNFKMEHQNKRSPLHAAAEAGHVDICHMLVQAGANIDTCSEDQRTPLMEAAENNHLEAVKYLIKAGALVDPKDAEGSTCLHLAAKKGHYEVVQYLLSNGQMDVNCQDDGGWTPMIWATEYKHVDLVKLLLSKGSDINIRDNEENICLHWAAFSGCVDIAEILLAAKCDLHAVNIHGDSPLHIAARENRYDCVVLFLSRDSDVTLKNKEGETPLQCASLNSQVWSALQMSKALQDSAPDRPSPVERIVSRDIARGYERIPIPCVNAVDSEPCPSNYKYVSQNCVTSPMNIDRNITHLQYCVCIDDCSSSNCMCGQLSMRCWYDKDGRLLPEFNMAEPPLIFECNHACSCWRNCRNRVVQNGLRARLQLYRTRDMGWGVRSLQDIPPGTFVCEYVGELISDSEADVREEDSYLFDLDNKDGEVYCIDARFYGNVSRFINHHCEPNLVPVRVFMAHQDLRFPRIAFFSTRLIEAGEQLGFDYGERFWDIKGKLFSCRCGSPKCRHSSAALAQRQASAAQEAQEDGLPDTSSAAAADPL
Description: Epigenetics selectivity panel (BPS Bioscience). Format: biochemical. The settings on record: for IC50: chemiluminescence assay carried out at BPS.

For assay [4], the system named is OCI-Ly7. Description: Cell proliferation assay (MTS). The format is cell-based. The note with it: Homo sapiens, GC-DLBCL, 48 h.
Assay [5] has as its system HEL. Description: Cell proliferation assay (MTS). The format is cell-based. The settings on record: Homo sapiens, AML, 48 h.
For assay [6], the system named is DB. The assay can be described thus: Cell proliferation assay (MTS). Format: cell-based. The note with it: Homo sapiens, GC-DLBCL, 48 h.
In assay [7] the target is T2, JMJD2C (Homo sapiens, UniProt Q9H3R0).
T2 construct: purchased DiscoverX KINOMEscan (kinases); BPS Bioscience (epigenetic targets)
The assay can be described thus: Epigenetics selectivity panel (BPS Bioscience). The format is biochemical.

Assay [8] has as its system OCI-Ly1. Description: Cell proliferation assay (MTS). The format is cell-based. The note with it: Homo sapiens, GC-DLBCL, 48 h.
Assay [9] deals with J82. Description: Cell proliferation assay (MTS). Format: cell-based. The note with it: Homo sapiens, Bladder.
Assay [10] concerns H209. The assay can be described thus: Cell proliferation assay (MTS). The settings on record: Homo sapiens, NCI-H209; SCLC. The format is cell-based.
The subject of assay [11] is RIVA. Description: Cell proliferation assay (MTS). The format is cell-based. The settings on record: Homo sapiens; ABC-DLBCL, 48 h.
Assay [12] relates to SU-DHL-8. Description: Cell proliferation assay (MTS). Format: cell-based. The note with it: Homo sapiens, ABC-DLBCL, 48 h.
The subject of assay [13] is OCI-Ly10. Description: Cell proliferation assay (MTS). Format: cell-based, human. The settings on record: ABC-DLBCL, 48 h, read-out: GI50.

“And” between values parts separate entries of the source, which are not always exact repeats. Identical values can stand only once. Like-named read-outs stand apart in the source and are kept apart here. Where only a bound is given, the exact number is not on record here.

T2 sequence (Q9H3R0 whole entry): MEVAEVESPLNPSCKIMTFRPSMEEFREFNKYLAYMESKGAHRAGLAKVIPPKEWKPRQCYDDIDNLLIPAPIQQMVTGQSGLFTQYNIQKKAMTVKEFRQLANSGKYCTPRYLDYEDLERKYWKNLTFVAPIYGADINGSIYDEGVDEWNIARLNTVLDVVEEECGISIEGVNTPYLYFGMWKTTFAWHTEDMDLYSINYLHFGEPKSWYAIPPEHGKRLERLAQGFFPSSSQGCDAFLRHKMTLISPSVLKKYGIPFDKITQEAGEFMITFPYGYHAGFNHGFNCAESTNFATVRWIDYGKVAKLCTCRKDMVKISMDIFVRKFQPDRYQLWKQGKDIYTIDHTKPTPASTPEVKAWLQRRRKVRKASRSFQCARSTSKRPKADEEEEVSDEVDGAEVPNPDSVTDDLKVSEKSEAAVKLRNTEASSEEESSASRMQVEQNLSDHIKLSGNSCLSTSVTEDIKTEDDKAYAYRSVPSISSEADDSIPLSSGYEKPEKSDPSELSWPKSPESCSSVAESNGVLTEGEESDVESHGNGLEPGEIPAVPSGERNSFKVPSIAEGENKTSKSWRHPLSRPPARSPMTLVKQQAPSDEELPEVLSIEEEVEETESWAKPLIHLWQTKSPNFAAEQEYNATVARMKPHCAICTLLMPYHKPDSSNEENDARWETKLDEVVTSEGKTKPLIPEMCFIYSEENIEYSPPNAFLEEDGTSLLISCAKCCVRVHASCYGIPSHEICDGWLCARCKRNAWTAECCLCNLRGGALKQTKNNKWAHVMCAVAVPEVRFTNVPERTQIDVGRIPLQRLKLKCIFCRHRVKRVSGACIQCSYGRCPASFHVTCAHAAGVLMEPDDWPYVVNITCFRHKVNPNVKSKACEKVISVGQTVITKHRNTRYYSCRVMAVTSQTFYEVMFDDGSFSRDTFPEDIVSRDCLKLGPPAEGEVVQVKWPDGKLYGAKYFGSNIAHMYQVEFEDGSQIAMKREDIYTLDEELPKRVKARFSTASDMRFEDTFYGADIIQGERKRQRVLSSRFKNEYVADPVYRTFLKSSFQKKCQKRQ

For the compound `COc1cc2c(NC3CCN(C)CC3)cc(-c3ccc(C)o3)nc2cc1OCCCN1CCCC1` [CM-272, 6-methoxy-2-(5-methyl-2-furyl)-N-(1-methyl-4-piperidyl)-7-(3-pyrrolidin-1-ylpropoxy)quinolin-4-amine], the GI50 in [1] is 1460 nM; in assay [2], 636 nM; in assay [4], 534 nM; in [5], > 10000 nM; in [6], 1310 nM; in assay [8], 1010 nM. In addition, the GI50 in assay [9] is > 10000 nM; in [10], 1150 nM; in [11], 1570 nM; in assay [12], 1950 nM. The “% Inhibition at 10 μM: GLP” value in assay [3] (10 µM) was 100% and 75%. This compound yielded a half-maximal inhibitory concentration (IC50) in [3] of 2 nM. In assay [7], this compound had an inhibition at 10 µM of 12%.
As for `COc1cc2c(NCC3CCN(C)CC3)cc(-c3ccc(C)o3)nc2cc1OCCCN1CCCC1` [CM-579, 6-methoxy-2-(5-methyl-2-furyl)-N-[(1-methyl-4-piperidyl)methyl]-7-(3-pyrrolidin-1-ylpropoxy)quinolin-4-amine], in assay [3], the IC50 was > 10000 nM. The GI50 was > 10000 nM in assay [5]; < 31 nM in [13]; 31 nM in assay [13] (Homo sapiens, OCI-Ly10, 48 h). This compound came in with an inhibition at 10 µM in assay [7] of 13%.

One may read the GI50 as the concentration at which growth is held to half of that of the control. A word on the % Inhibition: it is the percentage by which the read-out fell short of the control. Higher therefore signals a strong effect. As a reminder, the IC50 is the concentration that gives 50% inhibition. In general, inhibition refers to the percentage by which the read-out fell short of the control. A high value points to strong suppression.

Source of the values: PMC5458547, “Discovery of first-in-class reversible dual small molecule inhibitors against G9a and DNMTs in hematological malignancies” (Nature Communications, 2017).
